Marks after values point to notes of the source that are not given here.
Legend:
human keratinocytes [1] = assay: Mitochondrial fragmentation in keratinocytes, UV Study (Example 2), TPEF imaging of NADH, PSD exponent β; format: cell-based; settings: B3 10 mM, AceMet 500 uM, MeNAM 10 mM alone or 500 uM with B3; for Effect on UV-induced mitochondrial fragmentation in words: UV-exposed; for Mitochondrial Fragmentation (−) UV (3 days) / Mitochondrial Fragmentation (+) UV (4 days): keratinocytes; for Mitochondrial Fragmentation (−) UV (3 days): 3 days before UV exposure, control 1.30; for Mitochondrial Fragmentation (+) UV (4 days): 4 days after UV exposure (4 J/cm^2 UVA+UVB, 14 min daily), UV control 1.58
Experimental: Test compounds (B3, AceMet and MeNAM) were purchased from Sigma (St. Louis, Mo.). Cell culture growth media (Epilife media with calcium (Cat #MEPI500CA) and Epilife media supplement HKGS 100X (Cat #S-001-5)) was purchased from Thermofisher (Waltham, Mass.). Cryopreserved human keratinocytes cells (˜1×10^6 cells) were plated on 12-well glass bottom plates at a confluence of ˜15%. The cells were suspended in primary keratinocyte growth media (Epilife media with calcium) and incubated @ 37° C. for 1d (Day 0). At Day 1, cells began treatment with supplemented primary keratinocyte growth media (Epilife media with calcium supplemented with HKGS 100X; 25 ml total) without test compound (Control sample) or containing test compounds B3 (10 mM), MeNAM (10 mM), AceMet (500 uM), B3 (10 mM)+AceMet (500 uM) or B3 (10 mM)+MeNAM (500 uM). Cell treatment (25 ml media with or without test compounds as above) continued daily for 4 additional days (Non-UV Study—Example 1) or 2 additional days (UV Study—Example 2). For the UV Study, cells were subjected to UV treatment on Day 4 by replacing media with PBS, exposing cells to UV light (4 J/cm^2 of UVA+UVB) for 14 min and feeding cells with media with or without corresponding test compounds as defined above. UV treatments continued daily for 3 additional days (Days 5, 6 and 7). Image acquisition and analysis on all cell wells to assess mitochondrial fragmentation was conducted on Day 1, 3, 5 and 8.
(§1) For two-photon excited fluorescence (TPEF) imaging, cell cultures were placed in microscope-compatible micro-incubator system, which maintained 37° C. within a humidified environment throughout the imaging session.
HEPES buffering agent (Sigma) was added to cell cultures in primary keratinocyte growth medium before imaging, which maintained the pH of cell cultures throughout the imaging session. Images were obtained using a Leica TCS SP8 confocal microscope equipped with a tunable (680-1300 nm) titanium-sapphire laser (InSight Deep See; Spectra Physics; Mountain View, Calif.). Images (1024×1024 pixels; 386×386 μm) were acquired using water-immersion 25×objective (NA 0.95; 2.4 mm working distance), with simultaneous collection by two non-descanned photomultiplier tube (PMT) detectors using a filter cube containing filters from Chroma (Bellows Falls, Vt.), including a 700 nm short pass filter (ET700SP-2P) and a 495 nm dichroic mirror (495DCXR). To isolate NADH fluorescence, a 460(±20) nm emission filter (Chroma, ET460/40M-2P), corresponding to the NADH emission peak, was placed before one of the non-descanned detectors. NADH fluorescence images were acquired from this 460 nm channel using 755 nm excitation. FAD fluorescence was isolated using a 525(±25) nm emission filter (Chroma, ET525/50M-2P) for the other non-descanned detector and 860 nm excitation. The two-photon action cross section of NADH decreases by several orders of magnitude between 755 nm and 860 nm excitation, enabling an efficient isolation of FAD at longer wavelengths. The fluorescence lifetime images (512×512 pixels; 386×386 μm) corresponding to NADH were acquired under the same excitation and emission settings, using SymPho software. PMT gain was adjusted for each image to maximize contrast while preventing a saturated pixel intensity value. The PMT gain and laser power were recorded for each image and used to normalize fluorescence intensity.
To assess mitochondrial fragmentation, a previously established Fourier transform technique was used to obtain power spectral density (PSD) curves from each image. […]

human keratinocytes [2] = assay: Mitochondrial fragmentation in keratinocytes (Non-UV Study, Example 1), TPEF imaging of NADH, PSD exponent β; format: cell-based; settings: no UV, B3 10 mM
Experimental: Test compounds (B3, AceMet and MeNAM) were purchased from Sigma (St. Louis, Mo.). Cell culture growth media (Epilife media with calcium (Cat #MEPI500CA) and Epilife media supplement HKGS 100X (Cat #S-001-5)) was purchased from Thermofisher (Waltham, Mass.). Cryopreserved human keratinocytes cells (˜1×10^6 cells) were plated on 12-well glass bottom plates at a confluence of ˜15%. The cells were suspended in primary keratinocyte growth media (Epilife media with calcium) and incubated @ 37° C. for 1d (Day 0). […]
as §1
HEPES buffering agent (Sigma) was added to cell cultures in primary keratinocyte growth medium before imaging, which maintained the pH of cell cultures throughout the imaging session. […] To isolate NADH fluorescence, a 460(±20) nm emission filter (Chroma, ET460/40M-2P), corresponding to the NADH emission peak, was placed before one of the non-descanned detectors. NADH fluorescence images were acquired from this 460 nm channel using 755 nm excitation. FAD fluorescence was isolated using a 525(±25) nm emission filter (Chroma, ET525/50M-2P) for the other non-descanned detector and 860 nm excitation. […]

Structure (SMILES) | Effect on mitochondrial fragmentation in words, Non UV-exposed keratinocytes (human keratinocytes [1]) | Effect on UV-induced mitochondrial fragmentation in words (human keratinocytes [1]) | Mitochondrial Fragmentation (−) UV (3 days) (human keratinocytes [1]) | Mitochondrial Fragmentation (+) UV (4 days) (human keratinocytes [1]) | Mitochondrial Fragmentation (human keratinocytes [2]; keratinocytes after 5 days exposure, AceMet 500 uM, MeNAM 500 uM, higher value = less protection, control 1.88) | Effect on mitochondrial fragmentation in words (human keratinocytes [2]; keratinocytes, 5 days, AceMet or MeNAM 500 uM)
CSCC[C@H](NC(C)=O)C(=O)O [AceMet, N-acetylmethionine] | does not significantly reduce mitochondrial fragmentation | increases mitochondrial fragmentation beyond UV-exposed levels | 1.47^c,e | 1.76^c,e,h |  | 
NC(=O)c1cccnc1 [B3, Nicotinamide] | does not significantly reduce mitochondrial fragmentation | effective at reducing this UV-induced effect down to control levels | 1.18 | 1.34 ^d | 1.67 ^a | decreases mitochondrial fragmentation
C[n+]1cccc(C(N)=O)c1 [MeNAM, 1-methylnicotinamide chloride] | significantly reduces mitochondrial fragmentation | effective at reducing this UV-induced effect down to control levels | 1.15^a | 1.29^a,d |  | 

Reference: patent US20220362127A1, “BIOENERGETIC COMBINATIONS AND METHODS OF USING SAME” (Conopco, Inc., d/b/a UNILEVER, priority 2019, published 2022)
